# Assay results from patent US8318504B2, “MRP2 efflux pathway prognostic method” (priority 2009, dated 2012).
# How the values were obtained:
# ABCB11 = biological target: T1, ABCB11 (Homo sapiens, UniProt O95342); assay: ATP-dependent transport of CLF into Sf21 membrane vesicles containing ABCB11; assay type: biochemical; conditions: compared with control vesicles
# T1 construct: His tag (inferred from the anti-his probe used on the Western blot); made in house; host or cells: Sf21 insect cells, baculovirus (gift from Thompson); plasma membrane vesicles
# Method: The production of recombinant baculovirus was as described by de Waart et al. [Liver Int 2006 April; 26(3):362-368]. ABCC3 and ABCG2-recombinant baculovirus were a kind gift from Borst [Breedveld P. et al., Cancer Res 2004 Aug. 15; 64(16):5804-5811 and Borst P. et al., J Biol Chem 2001 Dec. 7; 276(49):46400-46407.]. ABCB11-recombinant baculovirus was a kind gift from Thompson [Thompson R J et al., Gastroenterology 2002 November; 123(5):1649-1658]. Sf21 cells grown at 27° C. were infected with ABCB11, ABCC2, ABCC3 and ABCG2-cDNA containing baculovirus. Cells were harvested at 2-4 days after infection. Membrane vesicle preparation was as described by de Waart et al. [Liver Int 2006 April; 26(3):362-368].
# Transport studies with membrane vesicles were performed using the rapid filtration technique as described by Heijn M et al. [Am J Physiol 1992 January; 262(1 Pt 1):C104-C110]. Radiolabel was measured with a scintillation counter. When CLF was used as a probe, filters were placed in a glass tube, 0.1% Triton-X-100 was added and the tubes vortexed. Samples were pipetted in 96-well plates (Kartell, Noviglio, Italy) and the amount CLF quantitated by measurement of fluorescence at λexe 485 nm and λcm 520 nm using a NovoStar (BMG-labtech, Offenburg, Germany).
# NTCP = biological target: T2, NTCP (Homo sapiens, UniProt Q14973); assay: Uptake of TC and CLF into CHO cells stably expressing NTCP; assay type: cell-based; conditions: 1 μmol/L CLF, 1 and 5 minutes, fluorescence analysis and quantitative determination
# T2 construct: the coding region ligated into pcDNA5/FRT; expressed in transfected cells
# T2 sequence (Q14973 1-349): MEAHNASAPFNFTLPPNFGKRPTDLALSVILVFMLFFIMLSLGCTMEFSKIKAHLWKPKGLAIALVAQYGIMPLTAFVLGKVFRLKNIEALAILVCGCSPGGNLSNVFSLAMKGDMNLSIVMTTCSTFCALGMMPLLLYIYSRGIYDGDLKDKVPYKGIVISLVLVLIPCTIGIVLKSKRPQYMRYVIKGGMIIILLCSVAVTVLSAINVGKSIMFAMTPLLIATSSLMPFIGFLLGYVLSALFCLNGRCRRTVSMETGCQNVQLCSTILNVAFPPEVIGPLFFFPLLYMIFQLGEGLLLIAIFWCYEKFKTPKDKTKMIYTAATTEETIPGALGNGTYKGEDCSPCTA
# Method: cDNA for human NTCP [Hagenbuch et al., J Clin Invest 1994 March; 93(3): 1326-1331] was cut with EcoRV and HindI and the coding region ligated into pcDNA5/FRT (Invitrogen, Life-Technologies, Carlsbad, Calif.). CHO FlpIn cells (Invitrogen, Life-Technologies) were transfected with the resulting construct using Lipofectamine® 2000 (Invitrogen, Life-Technologies). Stably transfected cells were selected with 550 μg Hygromycin-B in HAM-F12 medium (Gibco, Invitrogen, Life-Technologies). Transfected cells were cloned with the limiting dilution method. […] To further characterize the cloned cells, immunofluorescence localization of NTCP using a polyclonal antibody against NTCP [Kullak-Ublick G et al., Gastroenterology 1997 October; 113(4):1295-1305] was performed as described by Huber R D et al. [Am J Physiol Cell Physiol 2007 February; 292(2):[…]-[…]]. CHO cells expressing OATP1B1, OATP1B3 and OATP2B1 were described previously [Treiber et al., DMD 35:1400-1407, 2007]. For all transport experiments, cells grown on 3 cm culture dishes were cultured for 24 hours in media supplemented with 5 mmol/L sodium-butyrate to increase expression levels of transfected transporters [Palermo D P et al., J Biotechnol 1991 June; 19(1):35-47]. • Transport experiments with uptake of radioactively labeled substrates: These experiments were performed as described by Huber R D et al. […] Uptake was performed in the same buffers as for the radioactive substrates above. For visualization of CLF uptake, cells were immediately inspected with a Leica-DM-IRBE-inverted-microcope (Leica-Microsystems, Wetzlar, Germany) equipped with a Hamamatsu-ORKA-ER-camera (Hamamatsu-Photonoics, Japan). To determine uptake of CLF, cells were solubilized by the addition of 2 ml 1% (w/v) Triton-X-100. After complete solubilization, 1.5 ml was used to measure fluorescence in a Perkin-Elmer LS-5 luminescence-spectrometer set at λexe 486 nm (slit 10 nm) and λem 520 nm (slit 5 nm). Protein was determined with the bicinchoninic acid method using a kit from Interchim (Montfuçon, France). […]
# T1 sequence (O95342 whole entry): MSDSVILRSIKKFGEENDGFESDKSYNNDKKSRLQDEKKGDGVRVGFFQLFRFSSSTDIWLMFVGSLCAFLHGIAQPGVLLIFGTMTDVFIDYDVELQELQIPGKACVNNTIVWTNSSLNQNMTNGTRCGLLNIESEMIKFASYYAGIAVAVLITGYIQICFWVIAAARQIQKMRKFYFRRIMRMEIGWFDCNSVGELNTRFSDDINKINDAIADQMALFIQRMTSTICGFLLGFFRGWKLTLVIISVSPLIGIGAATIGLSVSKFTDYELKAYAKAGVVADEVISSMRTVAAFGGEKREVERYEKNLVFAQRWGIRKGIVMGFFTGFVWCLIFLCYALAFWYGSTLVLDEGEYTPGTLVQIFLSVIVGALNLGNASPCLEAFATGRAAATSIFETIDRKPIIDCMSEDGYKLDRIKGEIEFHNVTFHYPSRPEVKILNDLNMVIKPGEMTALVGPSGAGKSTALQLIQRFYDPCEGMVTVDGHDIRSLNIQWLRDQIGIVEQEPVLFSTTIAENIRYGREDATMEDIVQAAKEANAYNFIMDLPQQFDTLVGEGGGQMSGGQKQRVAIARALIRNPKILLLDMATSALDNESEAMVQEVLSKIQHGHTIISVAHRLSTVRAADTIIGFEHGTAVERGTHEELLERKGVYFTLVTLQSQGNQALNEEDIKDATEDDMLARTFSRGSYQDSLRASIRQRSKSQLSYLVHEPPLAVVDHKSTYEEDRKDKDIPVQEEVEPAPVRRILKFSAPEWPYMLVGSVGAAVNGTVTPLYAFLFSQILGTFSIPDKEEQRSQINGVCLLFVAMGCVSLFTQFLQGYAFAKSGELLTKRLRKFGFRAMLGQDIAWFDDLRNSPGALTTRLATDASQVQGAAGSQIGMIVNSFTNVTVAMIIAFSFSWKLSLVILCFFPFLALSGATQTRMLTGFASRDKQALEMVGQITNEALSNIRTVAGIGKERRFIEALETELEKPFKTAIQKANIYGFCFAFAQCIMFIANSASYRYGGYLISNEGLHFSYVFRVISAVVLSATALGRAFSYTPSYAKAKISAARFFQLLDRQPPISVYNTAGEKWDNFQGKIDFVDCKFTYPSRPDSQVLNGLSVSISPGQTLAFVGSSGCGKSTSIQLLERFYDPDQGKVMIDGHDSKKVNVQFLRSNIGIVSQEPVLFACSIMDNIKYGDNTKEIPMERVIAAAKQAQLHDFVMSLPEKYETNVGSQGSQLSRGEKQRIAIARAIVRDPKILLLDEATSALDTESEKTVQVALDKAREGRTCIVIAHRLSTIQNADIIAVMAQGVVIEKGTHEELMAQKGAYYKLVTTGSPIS
smiles,measurement,setting,value
"CC(CCC(=O)NC(CCCCNC(=S)Nc1ccc(-c2c3ccc(=O)cc-3oc3cc(O)ccc23)c(C(=O)O)c1)C(=O)O)C1CCC2C3C(O)CC4CC(O)CCC4(C)C3CC(O)C12C (centres unmarked) [CLF, cholyl lysyl fluorescein]",ATP-dependent transport of CLF in ABCB11 containing membrane vesicles,ABCB11,not higher than in control vesicles
same,sodium-dependent uptake of CLF mediated by NTCP,NTCP,no sodium-dependent uptake
